The source of these data is patent publication US5382670A, “Platelet activating factor antagonists” (priority 1993, dated 1995).

The assay concerns the target PAF receptor (Oryctolagus cuniculus, UniProt G1TEI7). Put plainly: PAF receptor binding assay: inhibition of specific [3H]C18-PAF binding to rabbit platelet membranes. To be noted: 0.6 nM [3H]C18-PAF, 60 min, 22-23 °C, Ki from IC50 (Cheng and Prusoff). How it is done: The ability of representative compounds of the present invention to inhibit PAF activity was determined in an in vitro test using the following method.
Citrated whole rabbit blood was obtained from Pel-Freez (Rogers, AR). Rabbit platelets were prepared by centrifugation and washing. The platelets were lysed by freeze-thawing and sonication; platelet membranes were prepared by centrifugation and washing. Final membrane preparations were stored frozen in 10 mM Tris/5 mM MgCl2 /2 mM EDTA (TME buffer, pH 7.0) with 0.25M sucrose added for membrane stabilization.
The standard PAF receptor binding assay contained 10 μg platelet membrane protein, 0.6 nM [^3 H]C18 -PAF (from Amersham or New England Nuclear; specific activity 120-180 Ci/mmol), with and without test compound, in "binding buffer" consisting of TME with 0.25% bovine serum albumin added (Sigma, RIA grade). The final volume of the assay was 100 μl. The assay was conducted in Millititre-GV™ (Millipore Corp.) filtration plates; incubation time was for 60 minutes at room temperature (22°-23° C.). "Specific binding" was operationally defined as the arithmetic difference between "total binding" of 0.6 nM [^3 H]C18 -PAF (in the abasence of added PAF) and "nonspecific binding" (in the presence of 1 μM PAF). After the prescribed incubation, platelet membranes were filtered under vacuum, and washed with 1 milliliter of "binding buffer". The filters were dried and removed. The bound radioactivity was quantitated with a Berthold TLC-Linear Analyzer model LB2842.
Dose-response curves of inhibition of specific [^3 H]C18 -PAF binding by test compounds were conducted in triplicate, with at least four doses covering the active range. Experiments were repeated at least once. IC50 values (concentration producing 50% inhibition) were determined by point-to-point evaluation. Ki values of inhibitory binding constants were calculated according to the method of Cheng and Prusoff [Biochem. Pharmacol. 22 (1973) 3099-3108] whereby [formula]
The values of Ki for representative compounds of the present invention appear in Table 1.

Where [1] appears, read: read-out: Ki (PAF Receptor Binding Activity).
The mark [2] stands for this setting: Ki (PAF Receptor Binding Activity).

Structures can show the parent of a compound that is named as a salt. Where two headings read alike, the source gives them in different places.

Sequence of PAF receptor (G1TEI7 1-342): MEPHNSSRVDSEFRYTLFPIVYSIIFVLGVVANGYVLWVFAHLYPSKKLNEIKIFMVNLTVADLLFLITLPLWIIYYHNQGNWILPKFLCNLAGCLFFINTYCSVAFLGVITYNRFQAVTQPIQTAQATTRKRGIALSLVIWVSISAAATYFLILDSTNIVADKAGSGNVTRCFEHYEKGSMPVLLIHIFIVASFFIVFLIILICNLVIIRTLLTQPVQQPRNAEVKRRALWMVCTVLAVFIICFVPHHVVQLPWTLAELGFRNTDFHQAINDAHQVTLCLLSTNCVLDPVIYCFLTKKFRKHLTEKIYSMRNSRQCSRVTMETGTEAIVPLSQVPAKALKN

On to “1-ethoxycarbonyl-3-[2-(3-pyridinyl)thiazolid-4-oyl]indole oxalate [Example 41]”, for which the inhibitory constant (Ki) (in general, the equilibrium dissociation constant of an inhibitor or competing ligand from its target) under setting [1] was 4 nM.
On the same count and under the same terms, the value for `CC(C)(C)OC(=O)n1cc(C(=O)[C@@H]2CS[C@H](c3cccnc3)S2)c2ccccc21` (relative stereo) [Example 29, cis-1-tert-butoxycarbonyl-3-[2-(3-pyridinyl)dithiolan-4-oyl]indole hydrochloride] was 180 nM; that for `CC(C)(C)OC(=O)n1cc(C(=O)[C@@H]2CS[C@@H](c3cccnc3)S2)c2ccccc21` (relative stereo) [Example 30, trans 1-tert-butoxycarbonyl-3-[2-(3-pyridinyl)dithiolan-4-oyl]indole oxalate] was 900 nM.
`CN(C)C(=O)n1cc(C(=O)[C@@H]2CS[C@H](c3cccnc3)N2C=O)c2ccccc21` (relative stereo) [Example 97, cis-1-Dimethylcarbamoyl-3-[2-(3-pyridinyl)-3-formylthiazolid-4-oyl]indole]: the Ki under setting [1] stood at 150 nM.
Still for that read-out and setting: the value for `CN(C)C(=O)n1cc(C(=O)[C@@H]2CS[C@H](c3cccnc3)N2C(=O)C(F)(F)F)c2ccccc21` (relative stereo) [Example 104, cis-1-dimethylcarbamoyl-3-[2-(3-pyridinyl)-3-trifluoroacetylthiazolid-4-oyl]indole] was 650 nM.
Same read-out and setting: the value for `CN(C)C(=O)n1cc(C(=O)[C@@H]2CS[C@H](c3cccnc3)N2C(=O)C(F)(F)F)c2ccccc21` (relative stereo) [Example 105, cis-1-dimethylcarbamoyl-3-[2-(3-pyridinyl)-3-trifluoroacetylthiazolid-4-oyl]indole oxalate] was 175 nM; that for `CN(C)C(=O)n1cc(C(=O)[C@@H]2CS[C@@H](c3cccnc3)N2C(=O)C(F)(F)F)c2ccccc21` (relative stereo) [Example 106, trans-1-dimethylcarbamoyl-3-[2-(3-pyridinyl)-3-trifluoroacetylthiazolid-4-oyl]indole] was 80 nM; that for `CN(C)C(=O)n1cc(C(=O)[C@@H]2CS[C@@H](c3cccnc3)N2C(=O)C(F)(F)F)c2ccccc21` (relative stereo) [Example 107, trans-1-dimethylcarbamoyl 1-34 2-(3-pyridinyl)-3-trifluoroacetylthiazolid-4-oyl]indole oxalate] was 75 nM.
In the case of `O=C(c1c[nH]c2ccccc12)C1CSC(c2cccnc2)N1C(=O)C(F)(F)F` (single isomer, unassigned; isomer 1) [Example 102, 3-[2-(3-pyridinyl)-3-trifluoroacetylthiazolid-4-oyl]indole,isomer 1], under setting [1], the Ki worked out at 2700 nM.
On the same count and under the same terms, as for `CN(C)C(=O)n1cc(C(=O)C2CSC(c3cccnc3)N2C(=O)C(F)(F)F)c2ccc(OCc3ccccc3)cc21` (single isomer, unassigned; isomer 1) [Example 108, 1-dimethylcarbamoyl-3-[2-(3-pyridinyl)-3-trifluoroacetylthiazolid-4-oyl]-6-phenylmethoxyindole, isomer 1], the figure is 250 nM.
Consider `O=C(c1c[nH]c2ccccc12)C1CSC(c2cccnc2)N1C(=O)C(F)(F)F` (single isomer, unassigned; isomer 2) [Example 103, 3-[2-(3-pyridinyl)-3-trifluoroacetylthiazolid-4-oyl]indole, isomer 2], for which the Ki under setting [1] was found to be 2800 nM.
The same measure, in the same setting: the value for `CN(C)C(=O)n1cc(C(=O)C2CSC(c3cccnc3)N2C(=O)C(F)(F)F)c2ccc(OCc3ccccc3)cc21` (single isomer, unassigned; isomer 2) [Example 109, 1-dimethylcarbamoyl-3-[2-[3-pyridinyl)-3-trifluoroacetylthiazolid-4-oyl]-6-phenylmethoxyindole, isomer 2] was 70 nM.
The same measure, in the same setting: as for `O=C(C1CSC(c2cccnc2)N1)n1ccc2cc(OCc3ccccc3)ccc21` (centres unmarked) [Example 1, 1-[2-(3-pyridinyl)thiazolid-4-oyl]-5-phenylmethoxyindole], the figure is 7 nM.
With `Cc1ccc2c(c1)cc(C)n2C(=O)C1CSC(c2cccnc2)N1` (centres unmarked) [Example 4, 1-[2-(3-pyridinyl)thiazolid-4-oyl]-2,5-dimethylindole], the Ki under setting [2] is 46 nM.
Consider `O=C(C1CSC(c2cccnc2)N1)n1ccc2c(Cl)cccc21` (centres unmarked) [Example 5, 1-[2-(3-pyridinyl)thiazolid-4-oyl]-4-chloroindole dihydrochloride], for which, under setting [1], the inhibition constant Ki came to 33 nM.
As for `O=C(C1CSC(c2cccnc2)N1)n1ccc2c(Br)cccc21` (centres unmarked) [Example 6, 1-[2-(3-pyridinyl)thiazolid-4-oyl]-4-bromoindole dihydrochloride], the affinity under setting [2] corresponds to a Ki of 53 nM.
Turning to `O=C(c1ccccc1)c1cccc2c1ccn2C(=O)C1CSC(c2cccnc2)N1` (centres unmarked) [Example 7, 1-[2-(3-pyridinyl)thiazolid-4-oyl]-4-benzoylindole dihydrochloride], the Ki under setting [1] stood at 12 nM.
Same read-out and setting: as for `COc1cc(C(=O)c2cccc3c2ccn3C(=O)C2CSC(c3cccnc3)N2)cc(OC)c1OC` (centres unmarked) [Example 8, 1-[2-(3-pyridinyl)thiazolid-4-oyl]-4-(3,4,5-trimethoxybenzoyl)indole], the figure is 4 nM.
Under setting [2], `O=C(C1CSC(c2cccnc2)N1)n1ccc2cc(Cl)ccc21` (centres unmarked) [Example 9, 1-[2-(3-pyridinyl)thiazolid-4-oyl]-5-chloroindole dihydrochloride] displayed a Ki of 140 nM.
On the same count and under the same terms, the value for `N#Cc1ccc2c(ccn2C(=O)C2CSC(c3cccnc3)N2)c1` (centres unmarked) [Example 10, 1-[2-(3-pyridinyl)thiazolid-4-oyl]-5-cyanoindole dihydrochloride] was 2100 nM.
`O=C(C1CSC(c2cccnc2)N1)n1ccc2cc(OCc3ccccc3)ccc21` (centres unmarked) [Example 11, 1-(2-(3-pyridinyl)thiazolid-4-oyl)-5-phenylmethoxyindole dihydrochloride]: under setting [1], the Ki amounted to 15 nM.
The compound `COc1cc2ccn(C(=O)C3CSC(c4cccnc4)N3)c2cc1OC` (centres unmarked) [Example 13, 1-[2-(3-pyridinyl)thiazolid-4-oyl]-5,6-dimethoxyindole dihydrochloride] displayed a Ki under setting [2] of 2400 nM.
On the same count and under the same terms, as for `O=C(C1CSC(c2cccnc2)N1)n1ccc2ccc(F)cc21` (centres unmarked) [Example 14, 1-[2-(3-pyridinyl)thiazolid-4-oyl]-6-fluoroindole], the figure is 67 nM.
In the case of `O=C(C1CSC(c2cccnc2)N1)n1ccc2ccc(Br)cc21` (centres unmarked) [Example 16, 1-[2-(3-pyridinyl)thiazolid-4-oyl]-6-bromoindole], under setting [2], affinity was put at a Ki of 25 nM.
As for `O=C(c1ccccc1)c1ccc2ccn(C(=O)C3CSC(c4cccnc4)N3)c2c1` (centres unmarked) [Example 17, 1-[2-(3-pyridinyl)thiazolid-4-oyl]-6-benzoylindole], the Ki under setting [1] was found to be 93 nM.
Still for that read-out and setting: as for `O=C(C1CSC(c2cccnc2)N1)n1ccc2ccc(OCc3ccccc3)cc21` (centres unmarked) [Example 18, 1-(2-(3-pyridinyl)thiazolid-4-oyl)-6-phenylmethoxyindole oxalate], the figure is 52 nM.
Compound `O=C(C1CSC(c2cccnc2)N1)n1ccc2cccnc21` (centres unmarked) [Example 19, 1-[2-(3-pyridinyl)thiazolid-4-oyl]-7-azaindole] showed a Ki under setting [2] of 12500 nM.
On the same count and under the same terms, as for `O=C(c1c[nH]c2ccccc12)C1CSC(c2cccnc2)N1` (centres unmarked) [Example 20, 3-[2-(3-pyridinyl)thiazolid-4-oyl]indole oxalate], the figure is 4 nM.
In the case of `Cc1c(C(=O)C2CSC(c3cccnc3)N2)c2ccccc2n1C` (centres unmarked) [Example 21, 1.2-dimethyl-3-[2-(3-pyridinyl)thiazolid-4-oyl]indole oxalate], the Ki under setting [1] came out at 105 nM.
As for `Cn1cc(C(=O)C2CSC(c3cccnc3)N2)c2ccccc21` (centres unmarked) [Example 22, 1-methyl-3-[2-3-pyridinyl)thiazolid-4-oyl]indole dihydrochloride], the Ki under setting [2] is 13 nM.
As to `O=C(c1c[nH]c2ccc(OCc3ccccc3)cc12)C1CSC(c2cccnc2)N1` (centres unmarked) [Example 23, 3-(2-(3-pyridinyl)thiazolid-4-oyl])-5-phenylmethoxyindole oxalate], the Ki under setting [1] turned out to be 23 nM.
Still for that read-out and setting: the value for `O=C(c1c[nH]c2cccc(OCc3ccccc3)c12)C1CSC(c2cccnc2)N1` (centres unmarked) [Example 24, 3-[2-(3-pyridinyl)thiazolid-4-oyl-4-phenylmethoxyindole oxalate] was 13 nM.
Regarding `Cc1cccc2c(C(=O)C3CSC(c4cccnc4)N3)c[nH]c12` (centres unmarked) [Example 25, 3-(2-(3-pyridinyl)thiazolid-4-oyl)-7-methylindole oxalate], the Ki under setting [2] came out at 5 nM.
`O=C(C1CSC(c2cccnc2)S1)n1ccc2ccccc21` (centres unmarked) [Example 26, 1-[2-(3-pyridinyl)dithiolan-4-oyl]indole oxalate]: under setting [1], the Ki came to 360 nM.
For `CCn1cc(C(=O)C2CSC(c3cccnc3)N2)c2ccccc21` (centres unmarked) [Example 27, 1-ethyl-3-[2-(3-pyridinyl)thiazolid-4-oyl]indole oxalate], the Ki under setting [2] is 6 nM.
